system: isolated soleus muscle; test: Electrical stimulation of isolated muscle (fatigue resistance); type: ex vivo tissue, mice; details: 50 μM in Krebs solution, 37° C., equilibrated three minutes, stimulation 330 ms/2-sec, 40 Hz; vs control solution
Procedure: Mice were bred in a similar manner to that for the control group of Test Example 1. Thereafter, soleus muscle was removed from each mouse. The isolated soleus muscle was fixed to a transducer (FORT100, product of WPI) in 37° C. Krebs solution (aeration: 95%-oxygen, 5%-carbon dioxide). The effect of catechins on the isolated muscle was analyzed. Specifically, each of eight catechin species (catechin, epicatechin, gallocatechin, epigallocatechin, catechin gallate, epicatechin gallate, gallocatechin gallate, and epigallocatechin gallate) was dissolved in a Krebs solution to a concentration of 50 μM. Each muscle piece was equilibrated in each solution for three minutes, and electrically stimulated (330 ms/2-sec). The frequency of stimulation was 40 Hz. […] A Krebs solution to which no catechin species had been added was employed as a control solution.

`O=C(O[C@@H]1Cc2c(O)cc(O)cc2O[C@H]1c1cc(O)c(O)c(O)c1)c1cc(O)c(O)c(O)c1` [gallocatechin gallate] was tested. Which “muscle force after 1 minute stimulation as fatigue index (ratio to muscle force at the start of electrical stimulation defined as 1)” value did it give?
Its value is “improved muscle fatigue resistance”.

Which “muscle force after 1 minute stimulation as fatigue index (ratio to muscle force at the start of electrical stimulation defined as 1)” value does the source give for `O=C(O[C@@H]1Cc2c(O)cc(O)cc2O[C@@H]1c1cc(O)c(O)c(O)c1)c1cc(O)c(O)c(O)c1` [epigallocatechin gallate] here?
The value was “improved muscle fatigue resistance”.

Which “muscle force after 1 minute stimulation as fatigue index (ratio to muscle force at the start of electrical stimulation defined as 1)” value does the source give for `O=C(O[C@@H]1Cc2c(O)cc(O)cc2O[C@@H]1c1ccc(O)c(O)c1)c1cc(O)c(O)c(O)c1` [epicatechin gallate] here?
The value was “improved muscle fatigue resistance”.
